Tests used:
[1] = tested on: HIV-1-IIIB strain; assay: Anti-HIV activity: protection of HIV-infected MT-4 cells from HIV-induced cytopathy (MTT assay); conditions: for SI(IIIB), selection index (CC50/EC50): HIV-1 IIIB, MT-4 cells; for EC50: Human immunodeficiency virus 1, IIIB, MT4
Description: (§1) The test was performed as follows. […] The toxicity test was performed in parallel with the anti-HIV activity test. […] Moreover, a selection index (SI=[…]) was also calculated.
The anti-HIV activity of the compound to be tested was evaluated by the inhibitory effect on the HIV-induced cytopathy in the cell.
Viruses: HIV-1-IIIB strain and HIV-2 ROD strain.
(§2) The compound to be tested was dissolved in DMSO or water and diluted gradiently with phosphate-buffered saline solution. […] 100 μL of a virus dilution at an appropriate concentration was added, and co-cultured with the MT-4 cells at 37° C. for 1 h. Then, the MT-4 cells were collected, washed three times, resuspended with a culture medium with or without the compound to be tested and cultured at 37° C. and 5% CO2 for 7 d. On the third day of the infection, the culture medium was correspondingly replaced with the culture medium with or without the compound to be tested. Each culture process was repeated twice. The HIV-induced cytopathy was monitored daily with a reverse optical microscope. […] Considering that the DMSO may affect the antiviral activity of the compound to be tested, it is necessary to design a blank control using the same concentration of DMSO.

[2] = tested on: MT-4 cells; assay: Cytotoxicity in uninfected MT-4 cells (MTT assay); format: cell-based; conditions: Mean ± SD, at least three independent experiments
Description: as §1, §2

[3] = prior art; cited from earlier work
[4] = Cytotoxicity in uninfected MT-4 cells (MTT assay); format: cell-based; conditions: human, uninfected MT-4 cells, Mean ± SD, at least three independent experiments
Description: as §1, §2

**Q.** For `O=C1Nc2ccc(Cl)cc2[C@@](C#CC2CC2)(C(F)(F)F)O1` [EFV, Efavirenz, reference compound], which “SI(IIIB), selection index (CC50/EC50)” value [1] is on record?
**A.** >1600

**Q.** What about the EC50 [1] of the same molecule?
**A.** 4 ± 1.5 nM

**Q.** And the CC50 [2]?
**A.** > 6330 nM

**Q.** With `Cc1cc(C#N)cc(C)c1Oc1nc(Nc2ccc(C#N)cc2)nc(N)c1Br` [ETR, Etravirine, reference compound] as the molecule, how does the “SI(IIIB), selection index (CC50/EC50)” value [1] read?
**A.** >1159

**Q.** And the EC50 [1]?
**A.** 4 ± 0.68 nM

**Q.** And the CC50 [2]?
**A.** > 4600 nM

**Q.** And the water solubility [3]?
**A.** < 1 µg/mL

**Q.** For `Cc1ccnc2c1NC(=O)c1cccnc1N2C1CC1` [NVP, Nevirapine, reference compound], which CC50 at 7 d [4] is on record?
**A.** > 15000 nM

**Q.** With `N#Cc1ccc(Nc2nccc(Nc3c(F)cc(-c4cccnc4)cc3F)n2)cc1` [compound 2] as the molecule, how does the “SI(IIIB), selection index (CC50/EC50)” value [1] read?
**A.** 32,698

**Q.** What about the EC50 [1] of the same molecule?
**A.** 7.4 ± 1.76 nM

**Q.** What about the CC50 [2] of the same molecule?
**A.** 242000 ± 42000 nM

**Q.** For `N#Cc1ccc(Nc2nccc(Nc3c(F)cc(-c4cncnc4)cc3F)n2)cc1` [compound 3], which “SI(IIIB), selection index (CC50/EC50)” value [1] is on record?
**A.** 229

**Q.** What about the EC50 [1] of the same molecule?
**A.** 11.9 ± 3.2 nM

**Q.** What about the CC50 [2] of the same molecule?
**A.** 2700 ± 1700 nM

**Q.** For `N#Cc1ccc(Nc2nccc(Nc3c(F)cc(-c4ccco4)cc3F)n2)cc1` [compound 4], which “SI(IIIB), selection index (CC50/EC50)” value [1] is on record?
**A.** 7910

**Q.** What about the EC50 [1] of the same molecule?
**A.** 2.1 nM

**Q.** What about the CC50 [2] of the same molecule?
**A.** 16600 ± 6900 nM

**Q.** What does the source list for `N#Cc1ccc(Nc2nccc(Nc3c(F)cc(-c4ccoc4)cc3F)n2)cc1` [compound 5]?
**A.** SI(IIIB), selection index (CC50/EC50) [1]: 3291; EC50 [1]: 3.2 ± 0.18 nM; CC50 [2]: 10600 ± 1800 nM

**Q.** Which results are given for `N#Cc1ccc(Nc2nccc(Nc3c(F)cc(-c4cccs4)cc3F)n2)cc1` [compound 6]?
**A.** SI(IIIB), selection index (CC50/EC50) [1]: >74,627; EC50 [1]: 4.1 ± 2 nM; CC50 [2]: > 308000 nM

**Q.** With `N#Cc1ccc(Nc2nccc(Nc3c(F)cc(-c4ccsc4)cc3F)n2)cc1` [compound 7] as the molecule, how does the “SI(IIIB), selection index (CC50/EC50)” value [1] read?
**A.** 14032

**Q.** What about the EC50 [1] of the same molecule?
**A.** 3.9 ± 1.4 nM

**Q.** And the CC50 [2]?
**A.** 55400 ± 18700 nM

**Q.** Which “SI(IIIB), selection index (CC50/EC50)” value [1] does the source give for `N#Cc1ccc(Nc2nccc(Nc3c(F)cc(-c4cn[nH]c4)cc3F)n2)cc1` [compound 8] here?
**A.** 298

**Q.** What about the EC50 [1] of the same molecule?
**A.** 10 ± 6 nM

**Q.** What about the CC50 [2] of the same molecule?
**A.** 3100 ± 1700 nM

**Q.** With `N#Cc1ccc(Nc2nccc(Nc3c(F)cc(-c4ccnc(F)c4)cc3F)n2)cc1` [compound 9] as the molecule, how does the “SI(IIIB), selection index (CC50/EC50)” value [1] read?
**A.** 1311

**Q.** And the EC50 [1]?
**A.** 3.8 ± 3.2 nM

**Q.** What about the CC50 [2] of the same molecule?
**A.** 5000 ± 900 nM

**Q.** For `N#Cc1ccc(Nc2nccc(Nc3c(F)cc(-c4cc(Cl)nc(Cl)c4)cc3F)n2)cc1` [compound 10], which “SI(IIIB), selection index (CC50/EC50)” value [1] is on record?
**A.** 97

**Q.** What about the EC50 [1] of the same molecule?
**A.** 56 ± 32.6 nM

**Q.** What about the CC50 [2] of the same molecule?
**A.** 5400 ± 540 nM

**Q.** For `N#Cc1ccc(Nc2nccc(Nc3c(F)cc(-c4ccnc(Cl)c4Cl)cc3F)n2)cc1` [compound 11], which “SI(IIIB), selection index (CC50/EC50)” value [1] is on record?
**A.** 3673

**Q.** And the EC50 [1]?
**A.** 5.5 ± 0.7 nM

**Q.** And the CC50 [2]?
**A.** 20000 ± 16000 nM

**Q.** What does the source list for `N#Cc1ccc(Nc2nccc(Nc3c(F)cc(-c4coc5ccccc45)cc3F)n2)cc1` [compound 12]?
**A.** SI(IIIB), selection index (CC50/EC50) [1]: 1991; EC50 [1]: 44 ± 10.1 nM; CC50 [2]: 87000 ± 54000 nM

**Q.** With `N#Cc1ccc(Nc2nccc(Nc3c(F)cc(-c4csc5ccccc45)cc3F)n2)cc1` [compound 13] as the molecule, how does the “SI(IIIB), selection index (CC50/EC50)” value [1] read?
**A.** 132

**Q.** And the EC50 [1]?
**A.** 124 ± 78 nM

**Q.** And the CC50 [2]?
**A.** 16000 ± 6000 nM

**Q.** Which “SI(IIIB), selection index (CC50/EC50)” value [1] does the source give for `N#Cc1ccc(Nc2nccc(Nc3c(F)cc(-c4ccnc(C#N)c4F)cc3F)n2)cc1` [compound 14] here?
**A.** >142,857

**Q.** And the EC50 [1]?
**A.** 1.98 ± 0.42 nM

**Q.** And the CC50 [2]?
**A.** > 282000 nM

**Q.** For `N#Cc1ccc(Nc2nccc(Nc3c(F)cc(-c4ccncc4F)cc3F)n2)cc1` [compound 15], which “SI(IIIB), selection index (CC50/EC50)” value [1] is on record?
**A.** 2566

**Q.** What about the EC50 [1] of the same molecule?
**A.** 1.3 ± 0.6 nM

**Q.** What about the CC50 [2] of the same molecule?
**A.** 3300 ± 1500 nM

**Q.** Which results are given for `N#Cc1ccc(Nc2nccc(Nc3c(F)cc(-c4cc(F)nc(F)c4)cc3F)n2)cc1` [compound 16]?
**A.** SI(IIIB), selection index (CC50/EC50) [1]: 1966; EC50 [1]: 5.6 ± 1.5 nM; CC50 [2]: 11000 ± 6800 nM

**Q.** With `N#Cc1ccc(Nc2nccc(Nc3c(F)cc(-c4ccnc(F)c4F)cc3F)n2)cc1` [compound 17] as the molecule, how does the “SI(IIIB), selection index (CC50/EC50)” value [1] read?
**A.** >147,059

**Q.** What about the EC50 [1] of the same molecule?
**A.** 2 ± 0.48 nM

**Q.** And the CC50 [2]?
**A.** > 286000 nM

**Q.** Which “SI(IIIB), selection index (CC50/EC50)” value [1] does the source give for `N#Cc1ccc(Nc2nccc(Nc3c(F)cc(-c4ccnc(Cl)c4)cc3F)n2)cc1` [compound 18] here?
**A.** 622

**Q.** And the EC50 [1]?
**A.** 6.8 ± 3.4 nM

**Q.** And the CC50 [2]?
**A.** 4200 ± 450 nM

**Q.** Which results are given for `N#Cc1ccc(Nc2nccc(Nc3c(F)cc(-c4ccnc(-c5ccnc(Cl)c5)c4)cc3F)n2)cc1` [compound 19]?
**A.** SI(IIIB), selection index (CC50/EC50) [1]: 3068; EC50 [1]: 16.8 ± 3 nM; CC50 [2]: 51000 ± 41000 nM

**Q.** With `Cc1cc(-c2cc(F)c(Nc3ccnc(Nc4ccc(C#N)cc4)n3)c(F)c2)ccn1` [compound 20] as the molecule, how does the “SI(IIIB), selection index (CC50/EC50)” value [1] read?
**A.** 777

**Q.** What about the EC50 [1] of the same molecule?
**A.** 4.1 ± 1.1 nM

**Q.** What about the CC50 [2] of the same molecule?
**A.** 3200 ± 1100 nM

**Q.** Which “SI(IIIB), selection index (CC50/EC50)” value [1] does the source give for `Cc1cc(-c2cc(F)c(Nc3ccnc(Nc4ccc(C#N)cc4)n3)c(F)c2)cc(C)n1` [compound 21] here?
**A.** 21

**Q.** And the EC50 [1]?
**A.** 56 ± 18 nM

**Q.** And the CC50 [2]?
**A.** 1200 ± 110 nM

**Q.** Which “SI(IIIB), selection index (CC50/EC50)” value [1] does the source give for `COc1cc(-c2cc(F)c(Nc3ccnc(Nc4ccc(C#N)cc4)n3)c(F)c2)ccn1` [compound 22] here?
**A.** 501

**Q.** And the EC50 [1]?
**A.** 13 ± 2.9 nM

**Q.** And the CC50 [2]?
**A.** 6700 ± 980 nM

**Q.** Which “SI(IIIB), selection index (CC50/EC50)” value [1] does the source give for `N#Cc1ccc(Nc2nccc(Nc3c(F)cc(-c4ccc(N)cc4)cc3F)n2)cc1` [compound 23] here?
**A.** >32,895

**Q.** And the EC50 [1]?
**A.** 9.2 ± 3.6 nM

**Q.** What about the CC50 [2] of the same molecule?
**A.** > 303000 nM

Source: patent publication US11912685B2, “Biphenyl diaryl pyrimidine derivative with aromatic heterocyclic structure” (priority 2021, dated 2024)
